Assay results reported in the kinase profiling compilation of Christmann-Franck et al. (2016).

Assays:
Assay in all cases: KINOMEscan competition binding
CaMK1 (human) = CaMK1 (human) (UniProt Q14012)
MLTK (human) = MLTK (human) (UniProt Q9NYL2)
RPS6KA4 KD1 (human) = RPS6KA4 KD1 (human) (UniProt O75676)
SRC (human) = SRC (human) (UniProt P12931)
EPHA1 (human) = EPHA1 (human) (UniProt P21709)
DDR1 (human) = DDR1 (human) (UniProt Q08345)
EPHA7 (human) = EPHA7 (human) (UniProt Q15375)
EPHA6 (human) = EPHA6 (human) (UniProt Q9UF33)
Sequence of EPHA6 (human) (Q9UF33 whole entry, looked up): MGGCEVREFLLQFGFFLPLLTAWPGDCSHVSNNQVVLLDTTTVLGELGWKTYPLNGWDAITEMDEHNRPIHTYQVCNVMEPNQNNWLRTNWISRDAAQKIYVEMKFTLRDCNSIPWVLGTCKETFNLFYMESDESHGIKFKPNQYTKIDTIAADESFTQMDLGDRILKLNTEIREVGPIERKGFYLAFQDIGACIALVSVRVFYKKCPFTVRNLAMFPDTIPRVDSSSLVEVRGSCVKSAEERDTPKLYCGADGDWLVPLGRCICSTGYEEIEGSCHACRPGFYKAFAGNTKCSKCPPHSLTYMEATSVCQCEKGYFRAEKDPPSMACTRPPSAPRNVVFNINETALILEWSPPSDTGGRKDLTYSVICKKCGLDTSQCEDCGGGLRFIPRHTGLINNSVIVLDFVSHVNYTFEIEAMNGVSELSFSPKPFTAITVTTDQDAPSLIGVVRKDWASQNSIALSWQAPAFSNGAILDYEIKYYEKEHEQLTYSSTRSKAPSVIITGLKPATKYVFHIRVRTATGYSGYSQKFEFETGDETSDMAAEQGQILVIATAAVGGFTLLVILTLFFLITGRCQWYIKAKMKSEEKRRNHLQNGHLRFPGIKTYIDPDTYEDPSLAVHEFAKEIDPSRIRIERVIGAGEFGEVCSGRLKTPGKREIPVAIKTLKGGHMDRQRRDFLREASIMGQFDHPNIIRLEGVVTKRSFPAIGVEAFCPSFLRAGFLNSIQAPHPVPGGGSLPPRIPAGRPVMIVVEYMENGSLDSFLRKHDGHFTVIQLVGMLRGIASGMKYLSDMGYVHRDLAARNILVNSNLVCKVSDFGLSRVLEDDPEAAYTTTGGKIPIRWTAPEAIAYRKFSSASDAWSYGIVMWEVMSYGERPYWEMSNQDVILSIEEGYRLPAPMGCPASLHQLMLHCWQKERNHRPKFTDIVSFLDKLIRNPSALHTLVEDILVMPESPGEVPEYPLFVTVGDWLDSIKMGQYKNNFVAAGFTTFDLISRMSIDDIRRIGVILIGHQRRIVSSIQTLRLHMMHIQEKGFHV

PLK4 (human) = PLK4 (human) (UniProt O00444)
Sequence of PLK4 (human) (O00444 whole entry, looked up): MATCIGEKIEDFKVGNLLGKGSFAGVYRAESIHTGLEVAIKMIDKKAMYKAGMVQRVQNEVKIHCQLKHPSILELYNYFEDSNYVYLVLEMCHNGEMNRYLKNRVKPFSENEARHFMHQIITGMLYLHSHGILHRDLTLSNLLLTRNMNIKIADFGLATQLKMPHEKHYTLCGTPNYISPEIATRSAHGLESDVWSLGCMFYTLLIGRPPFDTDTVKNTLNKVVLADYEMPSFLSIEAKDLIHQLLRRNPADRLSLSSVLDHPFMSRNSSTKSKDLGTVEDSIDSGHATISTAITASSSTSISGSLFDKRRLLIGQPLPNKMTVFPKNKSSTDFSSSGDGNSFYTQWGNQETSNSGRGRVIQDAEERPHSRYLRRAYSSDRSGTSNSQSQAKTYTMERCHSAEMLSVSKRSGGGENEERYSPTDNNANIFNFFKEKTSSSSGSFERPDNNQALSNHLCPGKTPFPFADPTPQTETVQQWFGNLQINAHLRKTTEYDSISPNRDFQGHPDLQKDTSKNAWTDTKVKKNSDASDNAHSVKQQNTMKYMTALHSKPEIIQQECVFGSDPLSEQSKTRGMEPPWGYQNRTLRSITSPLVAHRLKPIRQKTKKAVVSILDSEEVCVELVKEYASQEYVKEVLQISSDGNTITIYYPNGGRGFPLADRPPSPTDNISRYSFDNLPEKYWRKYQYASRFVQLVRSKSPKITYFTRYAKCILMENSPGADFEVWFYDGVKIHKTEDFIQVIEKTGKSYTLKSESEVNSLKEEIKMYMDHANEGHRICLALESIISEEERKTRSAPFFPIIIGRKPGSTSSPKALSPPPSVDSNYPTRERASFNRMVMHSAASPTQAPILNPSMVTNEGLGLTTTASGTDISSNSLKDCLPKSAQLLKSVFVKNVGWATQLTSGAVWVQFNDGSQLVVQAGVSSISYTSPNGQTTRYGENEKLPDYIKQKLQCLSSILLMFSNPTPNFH

[1] = biological target: ABL1 (human), P00519 [Q252H]
MAPK15 (human) = MAPK15 (human) (UniProt Q8TD08)
Sequence of MAPK15 (human) (Q8TD08 whole entry, looked up): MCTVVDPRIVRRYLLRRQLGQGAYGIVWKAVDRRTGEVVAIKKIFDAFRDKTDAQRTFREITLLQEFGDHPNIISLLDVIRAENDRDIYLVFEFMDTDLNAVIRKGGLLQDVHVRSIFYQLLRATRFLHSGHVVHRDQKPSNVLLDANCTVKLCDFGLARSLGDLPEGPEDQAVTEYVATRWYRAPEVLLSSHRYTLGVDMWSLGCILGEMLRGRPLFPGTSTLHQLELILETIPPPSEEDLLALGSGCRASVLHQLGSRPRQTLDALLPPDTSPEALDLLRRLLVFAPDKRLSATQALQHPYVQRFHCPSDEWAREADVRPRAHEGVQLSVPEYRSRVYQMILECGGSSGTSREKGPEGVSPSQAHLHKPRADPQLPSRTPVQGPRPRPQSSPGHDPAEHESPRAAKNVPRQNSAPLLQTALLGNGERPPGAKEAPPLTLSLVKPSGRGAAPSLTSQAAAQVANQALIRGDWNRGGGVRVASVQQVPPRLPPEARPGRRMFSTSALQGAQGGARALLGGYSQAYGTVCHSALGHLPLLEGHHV

CDK15 (human) = CDK15 (human) (UniProt Q96Q40)
Sequence of CDK15 (human) (Q96Q40 whole entry, looked up): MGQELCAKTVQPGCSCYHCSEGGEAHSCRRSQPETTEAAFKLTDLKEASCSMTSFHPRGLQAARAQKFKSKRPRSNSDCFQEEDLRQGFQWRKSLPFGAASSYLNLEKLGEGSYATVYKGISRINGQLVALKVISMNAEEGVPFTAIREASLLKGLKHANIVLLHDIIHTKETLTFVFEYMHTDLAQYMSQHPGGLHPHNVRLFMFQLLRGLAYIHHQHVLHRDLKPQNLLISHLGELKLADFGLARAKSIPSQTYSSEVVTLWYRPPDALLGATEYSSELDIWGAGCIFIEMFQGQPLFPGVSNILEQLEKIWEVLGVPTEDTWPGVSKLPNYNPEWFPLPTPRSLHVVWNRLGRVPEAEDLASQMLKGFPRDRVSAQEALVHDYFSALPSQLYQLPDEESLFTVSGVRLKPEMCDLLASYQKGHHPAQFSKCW

CDKL3 (human) = CDKL3 (human) (UniProt Q8IVW4)
[2] = biological target: ABL1 (human), P00519 [F317L]
TNK1 (human) = TNK1 (human) (UniProt Q13470)
AKT2 (human) = AKT2 (human) (UniProt P31751)
Sequence of AKT2 (human) (P31751 whole entry, looked up): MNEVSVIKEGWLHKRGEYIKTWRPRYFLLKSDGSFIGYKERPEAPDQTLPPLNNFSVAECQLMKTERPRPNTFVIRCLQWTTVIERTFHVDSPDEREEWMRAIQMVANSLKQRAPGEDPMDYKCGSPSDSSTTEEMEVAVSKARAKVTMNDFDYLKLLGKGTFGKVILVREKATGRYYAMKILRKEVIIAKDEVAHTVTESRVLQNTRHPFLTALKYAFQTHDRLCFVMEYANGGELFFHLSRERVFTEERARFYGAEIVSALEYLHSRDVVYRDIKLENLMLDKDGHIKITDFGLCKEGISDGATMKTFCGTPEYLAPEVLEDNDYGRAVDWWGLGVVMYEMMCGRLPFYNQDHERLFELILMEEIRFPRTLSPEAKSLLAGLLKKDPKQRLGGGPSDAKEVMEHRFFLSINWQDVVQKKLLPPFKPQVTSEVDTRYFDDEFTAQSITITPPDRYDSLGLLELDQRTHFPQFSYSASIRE

[3] = biological target: MET (human), P08581 [Y1235D]
MAPK10 (human) = MAPK10 (human) (UniProt P53779)
Sequence of MAPK10 (human) (P53779 whole entry, looked up): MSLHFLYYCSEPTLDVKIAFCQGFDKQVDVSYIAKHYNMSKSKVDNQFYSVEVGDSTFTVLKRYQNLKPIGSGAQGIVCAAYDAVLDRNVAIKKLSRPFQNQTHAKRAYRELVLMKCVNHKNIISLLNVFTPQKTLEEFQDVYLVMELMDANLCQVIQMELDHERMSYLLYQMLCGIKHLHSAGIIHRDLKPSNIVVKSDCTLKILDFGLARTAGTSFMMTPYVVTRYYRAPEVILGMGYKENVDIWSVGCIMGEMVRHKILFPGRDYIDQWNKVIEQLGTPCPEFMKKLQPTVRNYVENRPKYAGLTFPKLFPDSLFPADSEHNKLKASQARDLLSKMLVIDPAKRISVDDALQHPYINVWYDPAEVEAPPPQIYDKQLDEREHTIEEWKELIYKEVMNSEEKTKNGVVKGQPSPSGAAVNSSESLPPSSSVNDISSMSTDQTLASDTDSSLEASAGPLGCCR

AXL (human) = AXL (human) (UniProt P30530)
RIPK1 (human) = RIPK1 (human) (UniProt Q13546)
[4] = biological target: FLT3 (human), P36888 [D835Y]
FGFR1 (human) = FGFR1 (human) (UniProt P11362)
FER (human) = FER (human) (UniProt P16591)
TEC (human) = TEC (human) (UniProt P42680)
ABL2 (human) = ABL2 (human) (UniProt P42684)
TEK (human) = TEK (human) (UniProt Q02763)
Sequence of TEK (human) (Q02763 whole entry, looked up): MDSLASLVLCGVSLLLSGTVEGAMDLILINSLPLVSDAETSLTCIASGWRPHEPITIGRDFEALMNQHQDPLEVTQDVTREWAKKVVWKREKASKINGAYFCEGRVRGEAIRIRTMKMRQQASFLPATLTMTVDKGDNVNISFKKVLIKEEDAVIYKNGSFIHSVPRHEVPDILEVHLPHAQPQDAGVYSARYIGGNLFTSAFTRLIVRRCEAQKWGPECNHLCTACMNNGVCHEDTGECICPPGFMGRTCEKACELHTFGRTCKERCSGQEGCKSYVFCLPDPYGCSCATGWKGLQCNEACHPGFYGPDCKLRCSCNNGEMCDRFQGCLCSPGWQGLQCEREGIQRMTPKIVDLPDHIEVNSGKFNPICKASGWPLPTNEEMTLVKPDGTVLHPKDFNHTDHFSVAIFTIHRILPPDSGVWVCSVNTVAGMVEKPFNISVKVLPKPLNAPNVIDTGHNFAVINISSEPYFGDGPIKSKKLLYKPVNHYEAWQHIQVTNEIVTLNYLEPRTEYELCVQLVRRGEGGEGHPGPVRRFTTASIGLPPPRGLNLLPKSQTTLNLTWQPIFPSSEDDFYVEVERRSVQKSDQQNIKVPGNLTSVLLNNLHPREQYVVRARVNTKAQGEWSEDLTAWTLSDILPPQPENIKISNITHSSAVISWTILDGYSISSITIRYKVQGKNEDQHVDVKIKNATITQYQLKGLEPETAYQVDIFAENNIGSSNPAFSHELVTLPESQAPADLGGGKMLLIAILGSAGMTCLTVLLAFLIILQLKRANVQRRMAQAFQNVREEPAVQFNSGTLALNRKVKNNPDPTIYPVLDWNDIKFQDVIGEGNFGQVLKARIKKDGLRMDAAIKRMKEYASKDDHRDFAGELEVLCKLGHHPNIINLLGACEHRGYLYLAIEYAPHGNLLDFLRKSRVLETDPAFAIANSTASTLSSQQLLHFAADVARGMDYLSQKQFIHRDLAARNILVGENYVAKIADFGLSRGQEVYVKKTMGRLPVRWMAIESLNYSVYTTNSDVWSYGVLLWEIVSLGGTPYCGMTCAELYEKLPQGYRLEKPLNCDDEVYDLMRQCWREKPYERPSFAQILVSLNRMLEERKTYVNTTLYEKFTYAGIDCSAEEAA

COc1cc2ncnc(Oc3cccc(NC(=O)Nc4cc(C(C)(C)C(F)(F)F)on4)c3)c2cc1OC
Kd (CaMK1 (human)): 8.8 µM | Kd (MLTK (human)): 8.2 nM | Kd (RPS6KA4 KD1 (human)): 1900 nM | Kd (SRC (human)): 99 nM | Kd (EPHA1 (human)): 140 nM | Kd (DDR1 (human)): 0.6 nM | Kd (EPHA7 (human)): 71 nM | Kd (EPHA6 (human)): 5.5 nM | Kd (PLK4 (human)): 15 µM | Kd [1]: 9.9 nM | Kd (MAPK15 (human)): 94 nM | Kd (CDK15 (human)): 430 nM | Kd (CDKL3 (human)): 2000 nM | Kd [2]: 3.8 nM | Kd (TNK1 (human)): 150 nM | Kd (AKT2 (human)): 8.4 µM | Kd [3]: 260 nM | Kd (MAPK10 (human)): 88 nM | Kd (AXL (human)): 2700 nM | Kd (RIPK1 (human)): 3.2 µM | Kd [4]: 230 nM | Kd (FGFR1 (human)): 840 nM | Kd (FER (human)): 200 nM | Kd (TEC (human)): 6 µM | Kd (ABL2 (human)): 14 nM | Kd (TEK (human)): 130 nM
